From ChEMBL document CHEMBL1143178, “Synthesis and analysis of stabilizing ligands for FKBP-derived destabilizing domains” (Bioorg Med Chem Lett, 2008)

Assays:
[1] = Binding affinity to human FKBP F36V mutant
[2] = Binding affinity to human FKBP F36V/L106P mutant-YFP fusion protein expressed in NIH3T3 cells after 24 hrs; assay type: cell-based

| Structure (SMILES) | Kd [1] [nM] | EC50 [2] [nM] |
| --- | --- | --- |
| CCC(CC)NC(=O)N1CCCC[C@H]1C(=O)O[C@H](CCc1ccc(OC)c(OC)c1)c1cccc(OCCN2CCOCC2)c1 | 29 | 1200 |
| CC[C@H](C(=O)N1CCCC[C@H]1C(=O)O[C@H](CCc1ccc(OC)c(OC)c1)c1cccc(OCCN2CCOCC2)c1)c1cc(OC)c(OC)c(OC)c1 | 2.4 | 100 |
